Measured values as given in patent publication US5179088A, “1-Carba(dethia)cephalosporin antibiotics” (Eli Lilly and Company, priority 1990, dated 1993).

Assays:
Type in all cases: cell-based
Set-up in all cases: unit not given here
Citro = experiment: in vitro antibacterial activity, agar dilution (Citro); conditions: strain CF17
Protocol: (§1) *minimum inhibitory concentrations were determined by the Agardilution

Staphylococcus Epi = experiment: in vitro antibacterial activity, agar dilution (Staphylococcus epi)
Protocol: as §1

Enterbacter Aerogenes = experiment: in vitro antibacterial activity, agar dilution (Enterobacter aerogenes)
Protocol: as §1

Enterbacter Cloacea = experiment: in vitro antibacterial activity, agar dilution (Enterobacter cloacae)
Protocol: as §1

Salmonella = experiment: in vitro antibacterial activity, agar dilution (Salmonella)
Protocol: as §1

Streptococcus D = experiment: in vitro antibacterial activity, agar dilution (Streptococcus D)
Protocol: as §1

Proteus incon = experiment: in vitro antibacterial activity, agar dilution (Proteus incon); conditions: strain PR33
Protocol: as §1

Serratia = experiment: in vitro antibacterial activity, agar dilution (Serratia)
Protocol: as §1

Shig. sonn = experiment: in vitro antibacterial activity, agar dilution (Shig. sonn); conditions: strain N9
Protocol: as §1

E. coli = experiment: in vitro antibacterial activity, agar dilution (E. coli)
Protocol: as §1

Streptococcus A = experiment: in vitro antibacterial activity, agar dilution (Streptococcus A); conditions: strain C203
Protocol: as §1

Proteus rett = experiment: in vitro antibacterial activity, agar dilution (Proteus rett); conditions: strain C24
Protocol: as §1

Acin = experiment: in vitro antibacterial activity, agar dilution (Acin); conditions: strain AC12
Protocol: as §1

Klebsiella = experiment: in vitro antibacterial activity, agar dilution (Klebsiella)
Protocol: as §1

Streptococcus pn = experiment: in vitro antibacterial activity, agar dilution (Streptococcus pn); conditions: strain PARK
Protocol: as §1

H. Influ. = experiment: in vitro antibacterial activity, agar dilution (H. influ.)
Protocol: as §1

Staphylococcus Aureus = experiment: in vitro antibacterial activity, agar dilution (Staphylococcus aureus)
Protocol: as §1

Proteus morg = experiment: in vitro antibacterial activity, agar dilution (Proteus morg); conditions: strain PR15
Protocol: as §1

Pseudomonas = experiment: in vitro antibacterial activity, agar dilution (Pseudomonas)
Protocol: as §1

| Compound | minimum inhibitory concentration (Citro) | minimum inhibitory concentration (Staphylococcus Epi; strain 222) | minimum inhibitory concentration (Staphylococcus Epi; strain 270) | minimum inhibitory concentration (Enterbacter Aerogenes; strain C32) | minimum inhibitory concentration (Enterbacter Aerogenes; strain EB17) | minimum inhibitory concentration (Enterbacter Cloacea; strain 265A) | minimum inhibitory concentration (Enterbacter Cloacea; strain EB5) | minimum inhibitory concentration (Salmonella; strain 1335) | minimum inhibitory concentration (Salmonella; strain X514) | minimum inhibitory concentration (Streptococcus D; strain 2041) | minimum inhibitory concentration (Streptococcus D; strain X66) | minimum inhibitory concentration (Proteus incon) | minimum inhibitory concentration (Serratia; strain SE3) | minimum inhibitory concentration (Serratia; strain X99) | minimum inhibitory concentration (Shig. sonn) | minimum inhibitory concentration (E. coli; strain N10) | minimum inhibitory concentration (E. coli; strain TEM) | minimum inhibitory concentration (Streptococcus A) | minimum inhibitory concentration (Proteus rett) | minimum inhibitory concentration (Acin) | also measured |
| --- | --- | --- | --- | --- | --- | --- | --- | --- | --- | --- | --- | --- | --- | --- | --- | --- | --- | --- | --- | --- | --- |
| CO/N=C(\C(=O)N[C@@H]1C(=O)N2C(C(=O)O)=C(c3csc(-c4ccc([N+](=O)[O-])cc4)n3)CC[C@H]12)c1csc(N)n1 [Example 35, Sodium 7β-[(2-aminothiazol-4-yl)-Z-methoximinoacetylamino]-1-carba-(1-dethia)-3-[2-(4-nitrophenyl)thiazol-4-yl]-3-cephem-4-carboxylate] | 2 | 2 | 4 | .5 | 1 | 16 | 1 | 4 | 1 | 4 | > 128 | .25 | 4 | 4 | .5 | 1 | .5 | < .008 | .25 | 64 | minimum inhibitory concentration (E. coli; strain EC14): .5; minimum inhibitory concentration (Klebsiella; strain KAE): .5; minimum inhibitory concentration (Klebsiella; strain X26): < .008; minimum inhibitory concentration (Klebsiella; strain X68): 1; minimum inhibitory concentration (Streptococcus pn): < .008; minimum inhibitory concentration (H. Influ.; res, strain 76): .015; minimum inhibitory concentration (H. Influ.; sens, strain C.L.): .03; minimum inhibitory concentration (Staphylococcus Aureus; strain S13E): 32; minimum inhibitory concentration (Staphylococcus Aureus; strain V41): 2; minimum inhibitory concentration (Staphylococcus Aureus; strain X1.1): .5; minimum inhibitory concentration (Staphylococcus Aureus; strain X400): > 128; minimum inhibitory concentration (Proteus morg): .5 |
| CO/N=C(\C(=O)N[C@@H]1C(=O)N2C(C(=O)O)=C(c3csc(-c4ncc([N+](=O)[O-])s4)n3)CC[C@H]12)c1csc(N)n1 [Example 36] | .06 | 2 | 1 | .125 | .25 | .5 | 1 | .5 | .25 | 4 | 64 | .25 | 4 | 1 | .25 | .25 | .25 | .015 | .06 | 32 | minimum inhibitory concentration (Pseudomonas; strain PS18): > 128; minimum inhibitory concentration (Pseudomonas; strain PS72): > 128; minimum inhibitory concentration (Pseudomonas; strain X239): 32; minimum inhibitory concentration (Pseudomonas; strain X528): 32; minimum inhibitory concentration (Klebsiella; strain KAE): .5; minimum inhibitory concentration (Klebsiella; strain X26): < .008; minimum inhibitory concentration (Klebsiella; strain X68): .25; minimum inhibitory concentration (Streptococcus pn): < .008; minimum inhibitory concentration (H. Influ.; res, strain 76): < .008; minimum inhibitory concentration (H. Influ.; sens, strain C.L.): .015; minimum inhibitory concentration (Staphylococcus Aureus; strain S13E): 32; minimum inhibitory concentration (Staphylococcus Aureus; strain V41): 2; minimum inhibitory concentration (Staphylococcus Aureus; strain X1.1): .25; minimum inhibitory concentration (Staphylococcus Aureus; strain X400): 16; minimum inhibitory concentration (Proteus morg): .25 |
